Measured values from ChEMBL document CHEMBL1201862, “PubChem BioAssay data set” (2004).
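Cells were grown in 96-well plates and exposed to each compound for 48 hours at five concentrations; endpoints were interpolated linearly between bracketing concentrations, or set to the highest concentration if not reached. GI50 is the concentration that inhibits growth by half.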 The source made the active and inactive calls. Rule as the data show it: active = GI50 up to about 1.1 µM and inactive = higher.

Key:
Assay in all cases: growth of human tumour cells (NCI), 48 h
[1] = system: MCF7
[2] = system: RXF 631
[3] = system: SK-MEL-28
[4] = system: Hs-578T
[5] = system: 786-0
[6] = system: SW-620
[7] = system: BT-549
[8] = system: DMS-273
[9] = system: M14
[10] = system: MDA-MB-435
[11] = system: SF-295
[12] = system: HOP-62
[13] = system: SNB-75
[14] = system: M19-MEL
[15] = system: HOP-18
[16] = system: SNB-19
[17] = system: CAKI-1
[18] = system: DMS-114
[19] = system: A549
[20] = system: SF-268
[21] = system: CCRF-CEM
[22] = system: COLO 205
[23] = system: SK-MEL-5
[24] = system: HT-29
[25] = system: RPMI-8226
[26] = system: RXF 393
[27] = system: SNB-78
[28] = system: EKVX
[29] = system: NCI-H522
[30] = system: NCI-H460
[31] = system: TK-10
[32] = system: U-251
[33] = system: K562
[34] = system: NCI-H23
[35] = system: SR
[36] = system: A498
[37] = system: OVCAR-3
[38] = system: T47D
[39] = system: OVCAR-8
[40] = system: HL-60
[41] = system: OVCAR-5
[42] = system: KM12
[43] = system: OVCAR-4
[44] = system: LOX IMVI
[45] = system: HCC 2998
[46] = system: PC-3
[47] = system: SK-OV-3
[48] = system: HOP-92
[49] = system: NCI-H226
[50] = system: HCT-15
[51] = system: MDA-MB-231
[52] = system: MOLT-4
[53] = system: SK-MEL-2
[54] = system: DU-145
[55] = system: DLD-1
[56] = system: Malme-3M
[57] = system: ACHN
[58] = system: NCI/ADR-RES
[59] = system: SF-539
[60] = system: UACC-257
[61] = system: SN12C
[62] = system: UACC-62
[63] = system: IGROV-1
[64] = system: HCT-116
[65] = system: KM-20L2
[66] = system: MDA-N
[67] = system: UO-31
[68] = system: XF498

Cc1c(N(C)C)ccc2c(=O)c3cccc(CC(=O)O)c3oc12
GI50 [1]: > 100 µM (inactive) | GI50 [2]: > 100 µM (inactive) | GI50 [3]: > 100 µM (inactive) | GI50 [4]: > 100 µM (inactive) | GI50 [5]: > 100 µM (inactive) | GI50 [6]: > 33.3 µM (inactive) | GI50 [7]: 65.2 µM (inactive) | GI50 [8]: > 100 µM (inactive) | GI50 [9]: > 100 µM (inactive) | GI50 [10]: > 100 µM (inactive) | GI50 [11]: > 100 µM (inactive) | GI50 [12]: > 100 µM (inactive) | GI50 [13]: > 100 µM (inactive) | GI50 [14]: > 100 µM (inactive) | GI50 [15]: > 100 µM (inactive) | GI50 [16]: > 43.4 µM (inactive) | GI50 [17]: > 100 µM (inactive) | GI50 [18]: > 100 µM (inactive) | GI50 [19]: > 100 µM (inactive) | GI50 [20]: > 100 µM (inactive) | GI50 [21]: > 100 µM (inactive) | GI50 [22]: > 100 µM (inactive) | GI50 [23]: > 75.3 µM (inactive) | GI50 [24]: > 100 µM (inactive) | GI50 [25]: > 100 µM (inactive) | GI50 [26]: > 100 µM (inactive) | GI50 [27]: > 100 µM (inactive) | GI50 [28]: > 100 µM (inactive) | GI50 [29]: > 100 µM (inactive) | GI50 [30]: > 100 µM (inactive) | GI50 [31]: > 100 µM (inactive) | GI50 [32]: > 100 µM (inactive) | GI50 [33]: > 100 µM (inactive) | GI50 [34]: > 100 µM (inactive) | GI50 [35]: > 100 µM (inactive) | GI50 [36]: > 81.8 µM (inactive) | GI50 [37]: > 100 µM (inactive) | GI50 [38]: > 100 µM (inactive) | GI50 [39]: > 100 µM (inactive) | GI50 [40]: 97.9 µM (inactive) | GI50 [41]: > 100 µM (inactive) | GI50 [42]: > 100 µM (inactive) | GI50 [43]: > 100 µM (inactive) | GI50 [44]: > 100 µM (inactive) | GI50 [45]: > 100 µM (inactive) | GI50 [46]: > 100 µM (inactive) | GI50 [47]: > 100 µM (inactive) | GI50 [48]: > 64.9 µM (inactive) | GI50 [49]: > 100 µM (inactive) | GI50 [50]: > 100 µM | GI50 [51]: > 100 µM (inactive) | GI50 [52]: > 100 µM (inactive) | GI50 [53]: > 100 µM (inactive) | GI50 [54]: > 100 µM (inactive) | GI50 [55]: > 100 µM (inactive) | GI50 [56]: > 100 µM (inactive) | GI50 [57]: > 100 µM (inactive) | GI50 [58]: > 100 µM (inactive) | GI50 [59]: > 100 µM (inactive) | GI50 [60]: > 100 µM (inactive) | GI50 [61]: > 100 µM (inactive) | GI50 [62]: > 100 µM (inactive) | GI50 [63]: > 100 µM (inactive) | GI50 [64]: > 100 µM (inactive) | GI50 [65]: > 100 µM (inactive) | GI50 [66]: > 100 µM (inactive) | GI50 [67]: > 100 µM (inactive)

CCOC(=O)C1Nc2ccc([N+](=O)[O-])cc2[C@H]2OCC[C@@H]12 (stereo partly specified)
GI50 [2]: > 100 µM (inactive) | GI50 [3]: > 100 µM (inactive) | GI50 [5]: > 100 µM (inactive) | GI50 [6]: > 100 µM (inactive) | GI50 [8]: > 100 µM (inactive) | GI50 [9]: > 100 µM (inactive) | GI50 [11]: > 100 µM (inactive) | GI50 [12]: > 100 µM (inactive) | GI50 [13]: > 100 µM (inactive) | GI50 [14]: > 100 µM (inactive) | GI50 [15]: > 100 µM (inactive) | GI50 [16]: > 100 µM (inactive) | GI50 [17]: > 100 µM (inactive) | GI50 [18]: > 100 µM (inactive) | GI50 [19]: > 100 µM (inactive) | GI50 [20]: > 100 µM (inactive) | GI50 [21]: > 100 µM (inactive) | GI50 [22]: > 100 µM (inactive) | GI50 [23]: > 100 µM (inactive) | GI50 [24]: > 100 µM (inactive) | GI50 [26]: > 100 µM (inactive) | GI50 [27]: > 100 µM (inactive) | GI50 [28]: > 100 µM (inactive) | GI50 [29]: > 100 µM (inactive) | GI50 [30]: > 100 µM (inactive) | GI50 [31]: > 100 µM (inactive) | GI50 [32]: > 100 µM (inactive) | GI50 [33]: > 100 µM (inactive) | GI50 [34]: > 100 µM (inactive) | GI50 [36]: > 100 µM (inactive) | GI50 [37]: > 100 µM (inactive) | GI50 [39]: > 100 µM (inactive) | GI50 [40]: > 100 µM (inactive) | GI50 [68]: > 100 µM (inactive) | GI50 [41]: > 100 µM (inactive) | GI50 [42]: > 100 µM (inactive) | GI50 [43]: > 100 µM (inactive) | GI50 [44]: > 100 µM (inactive) | GI50 [45]: > 100 µM (inactive) | GI50 [47]: > 100 µM (inactive) | GI50 [49]: > 100 µM (inactive) | GI50 [50]: > 100 µM | GI50 [52]: > 100 µM (inactive) | GI50 [53]: > 100 µM (inactive) | GI50 [55]: > 100 µM (inactive) | GI50 [56]: > 100 µM (inactive) | GI50 [57]: > 100 µM (inactive) | GI50 [59]: > 100 µM (inactive) | GI50 [60]: > 100 µM (inactive) | GI50 [61]: > 100 µM (inactive) | GI50 [62]: > 100 µM (inactive) | GI50 [63]: > 100 µM (inactive) | GI50 [64]: > 100 µM (inactive) | GI50 [65]: > 100 µM (inactive)
